# Experimental data from patent publication US8912146B2, “Derivatives of APF and methods of use” (University of Maryland, Baltimore, priority 2008, dated 2014).
# *1 amine or outer side, *2 acyl side, *3 side chain or, on linkers, in order; H or OH if unused. Where a SMILES comes first, the peptide text is derived from it. [ ]: non-standard residue; d: D form. The star is where a group is joined. ξ: configuration not given here. X1 = CC(=O)NC1C(O[C@@H]2OC(CO)[C@H](O)C(O)C2O)[C@@H](O)C(CO)O[C@@H]1*; X2 = CC(C)(C)OC1C[C@@H](C(=O)[*:2])N([*:1])C1; X4 = CC1(C)OC[C@@H](C(=O)[*:2])N1[*:1]; X3 = O=C([C@@H]1CC(O)CN1[*:1])[*:2]; Thr(3ξ) = CC(O)[C@H](N)C(=O)O; ξY = NC(Cc1ccc(O)cc1)C(=O)O; NMeA = CN[C@@H](C)C(=O)O; ξL = CC(C)CC(N)C(=O)O; ξV = CC(C)C(N)C(=O)O; ξA = CC(N)C(=O)O
# Tested on: primary normal human bladder epithelial cells
# Assay: 3H-thymidine incorporation (antiproliferative activity) in primary normal bladder epithelial cells
# Assay type: cell-based
# Settings: for % of activity: relative to 1 (as-APF) run on the same plate, from IC50, inactive = no significant activity at <25 μM
# Procedure: Cell Culture. Cystoscopy was performed under general anesthesia, and 4-mm^2 pieces of transitional epithelium with submucosal bladder tissue were obtained for the growth of primary bladder epithelial cells, as previously described (Keay et al., 1996; 2004). Primary normal bladder epithelial cells were propagated in DMEM-F12 (Media-Tech, Herndon Va.) with 10% heat-inactivated fetal bovine serum (FBS), 1% antibiotic/antimycotic solution, 1% L-glutamine, 0.25 units/mL insulin (all from Sigma, St. Louis, Mo.), and 5 ng/mL hEGF (R&D Systems, Minneapolis, Minn.) at 37° C. in a 5% CO2 atmosphere and characterized by binding of AE-1/AE-3 pancytokeratin antibodies (Signet, Dedham, Mass.).
# ^3H-Thymidine Incorporation. Cell proliferation was measured by ^3H-thymidine incorporation into explanted normal human bladder epithelial cells, plating 1.5×10^4 cells/well onto a 96 well cell culture plate (VWR 29442-054), in 150 ul/well MEM containing 10% heat inactivated FBS, 1% antibiotic/antimycotic solution, and 1% L-glutamine (all from Sigma), resulting in a doubling time of 48-72 hours, as previously described (Keay et al., 1996; 2004). Each purified lyophilized synthetic APF congener was resuspended in acetonitrile/distilled water (1:1), and applied to the cells in serum-free MEM (containing only L-glutamine and antibiotics/antimycotics); cell controls received acetonitrile/distilled water diluted in serum-free MEM alone. Cells were then incubated at 37° C. in a 5% CO2 atmosphere for 48 hours. The cell contents harvested and methanol-fixed onto glass fiber filter paper, and the amount of radioactivity incorporated determined. Significant inhibition of ^3H-thymidine incorporation was defined as a mean decrease in counts per minute of greater than 2 standard deviations from the mean of control cells for each plate. Inhibition of cell proliferation was determined from a semi-log plot of dose-response for each APF derivative; IC50 was determined as the concentration of each derivative that caused a mean 50% inhibition of thymidine incorporation as compared to the mean of untreated cell controls.
# Statistical Analysis. The thymidine incorporation (APF biological activity) assay was performed in triplicate on at least two separate runs, with 1 run simultaneously in triplicate on the same plate. The significance of the difference between mean values for each congener vs. mean values for compound 1 was determined by an analysis of variance.
SMILES,"antiproliferative activity compared with as-APF (1), in words",% of activity,"activity (as-APF8 analogues Galβ1-3GalNAcα-O-TVPAA-R-R-R, Table 7)"
CC(=O)NC1C(O[C@@H]2OC(CO)[C@H](O)C(O)C2O)[C@@H](O)C(CO)O[C@@H]1OC[C@H](N)C(=O)NC(CC(C)C)C(=O)N1CCC[C@H]1C(=O)NC(C)C(=O)N[C@@H](C)C(=O)NC(C(=O)N[C@H](C(=O)NC(C(=O)N[C@@H](C)C(=O)O)C(C)C)C(C)C)C(C)C (some centres unmarked) [Derivative 2] (H-S(X1)[ξL]P[ξA]A[ξV]V[ξV]A-OH),two orders of magnitude loss of potency,1%,
CC(=O)NC1C(O[C@@H]2OC(CO)[C@H](O)C(O)C2O)[C@@H](O)C(CO)O[C@@H]1OC[C@H](N)C(=O)NC(C(=O)N1CCC[C@H]1C(=O)NC(C)C(=O)N[C@@H](C)C(=O)NC(C(=O)N[C@H](C(=O)NC(C(=O)N[C@@H](C)C(=O)O)C(C)C)C(C)C)C(C)C)C(C)C (some centres unmarked) [Derivative 3] (H-S(X1)[ξV]P[ξA]A[ξV]V[ξV]A-OH),4 orders of magnitude,0.01%,
CC(=O)NC1C(O[C@@H]2OC(CO)[C@H](O)C(O)C2O)[C@@H](O)C(CO)O[C@@H]1OC(C)[C@H](N)C(=O)NC(CC(C)C)C(=O)N1CCC[C@H]1C(=O)NC(C)C(=O)N[C@@H](C)C(=O)NC(C(=O)N[C@H](C(=O)NC(C(=O)N[C@@H](C)C(=O)O)C(C)C)C(C)C)C(C)C (some centres unmarked) [Derivative 4] (H-[Thr(3ξ)](X1)[ξL]P[ξA]A[ξV]V[ξV]A-OH),inactivation,inactive,
CC(=O)NC1C(O[C@@H]2OC(CO)[C@H](O)C(O)C2O)[C@@H](O)C(CO)O[C@@H]1OC(C)[C@H](NC(=O)C(N)Cc1ccc(O)cc1)C(=O)NC(CC(C)C)C(=O)N1CCC[C@H]1C(=O)NC(C)C(=O)N[C@@H](C)C(=O)NC(C(=O)N[C@H](C(=O)NC(C(=O)N[C@@H](C)C(=O)O)C(C)C)C(C)C)C(C)C (some centres unmarked) [Derivative 6] (H-[ξY][Thr(3ξ)](X1)[ξL]P[ξA]A[ξV]V[ξV]A-OH),approximately 2 orders of magnitude loss of potency,1%,
CC(=O)NC1C(O[C@@H]2OC(CO)[C@H](O)C(O)C2O)[C@@H](O)C(CO)O[C@@H]1OC(C)[C@H](N)C(=O)NC(Cc1ccc(O)cc1)C(=O)N1CCC[C@H]1C(=O)NC(C)C(=O)N[C@@H](C)C(=O)NC(C(=O)N[C@H](C(=O)NC(C(=O)N[C@@H](C)C(=O)O)C(C)C)C(C)C)C(C)C (some centres unmarked) [Derivative 7] (H-[Thr(3ξ)](X1)[ξY]P[ξA]A[ξV]V[ξV]A-OH),complete inactivation,inactive,
CC(=O)NC1C(O[C@@H]2OC(CO)[C@H](O)C(O)C2O)[C@@H](O)C(CO)O[C@@H]1OC(C)[C@H](N)C(=O)NC(C(=O)N1[C@H](C(=O)NC(C)C(=O)N[C@@H](C)C(=O)NC(C(=O)N[C@H](C(=O)NC(C(=O)N[C@@H](C)C(=O)O)C(C)C)C(C)C)C(C)C)COC1(C)C)C(C)C (some centres unmarked) [Derivative 9] (H-[Thr(3ξ)](X1)[ξV][X4][ξA]A[ξV]V[ξV]A-OH),completely abolished activity,inactive,
CC(=O)NC1C(O[C@@H]2OC(CO)[C@H](O)C(O)C2O)[C@@H](O)C(CO)O[C@@H]1OC(C)[C@H](N)C(=O)NC(C(=O)N[C@@H](C)C(=O)NC(C)C(=O)N[C@@H](C)C(=O)NC(C(=O)N[C@H](C(=O)NC(C(=O)N[C@@H](C)C(=O)O)C(C)C)C(C)C)C(C)C)C(C)C (some centres unmarked) [Derivative 11] (H-[Thr(3ξ)](X1)[ξV]A[ξA]A[ξV]V[ξV]A-OH),2-3 orders of magnitude decrease,0.3%,
CC(=O)NC1C(O[C@@H]2OC(CO)[C@H](O)C(O)C2O)[C@@H](O)C(CO)O[C@@H]1OC(C)[C@H](N)C(=O)NC(C(=O)N1CC(O)C[C@H]1C(=O)NC(C)C(=O)N[C@@H](C)C(=O)NC(C(=O)N[C@H](C(=O)NC(C(=O)N[C@@H](C)C(=O)O)C(C)C)C(C)C)C(C)C)C(C)C (some centres unmarked) [Derivative 12] (H-[Thr(3ξ)](X1)[ξV][X3][ξA]A[ξV]V[ξV]A-OH),2-3 orders of magnitude decrease,0.3%,
CC(=O)NC1C(O[C@@H]2OC(CO)[C@H](O)C(O)C2O)[C@@H](O)C(CO)O[C@@H]1OC(C)[C@H](N)C(=O)NC(C(=O)N1CC(OC(C)(C)C)C[C@H]1C(=O)NC(C)C(=O)N[C@@H](C)C(=O)NC(C(=O)N[C@H](C(=O)NC(C(=O)N[C@@H](C)C(=O)O)C(C)C)C(C)C)C(C)C)C(C)C (some centres unmarked) [Derivative 13] (H-[Thr(3ξ)](X1)[ξV][X2][ξA]A[ξV]V[ξV]A-OH),2-3 orders of magnitude decrease,0.2%,
CC(=O)NC1C(O[C@@H]2OC(CO)[C@H](O)C(O)C2O)[C@@H](O)C(CO)O[C@@H]1OC(C)[C@H](N)C(=O)NC(C(=O)N(C)[C@@H](C)C(=O)NC(C)C(=O)N[C@@H](C)C(=O)NC(C(=O)N[C@H](C(=O)NC(C(=O)N[C@@H](C)C(=O)O)C(C)C)C(C)C)C(C)C)C(C)C (some centres unmarked) [Derivative 14] (H-[Thr(3ξ)](X1)[ξV][NMeA][ξA]A[ξV]V[ξV]A-OH),4 orders of magnitude decrease,0.05%,
CC(=O)NC1C(O[C@@H]2OC(CO)[C@H](O)C(O)C2O)[C@@H](O)C(CO)O[C@@H]1OC(C)[C@H](N)C(=O)NC(C(=O)N1CCC[C@H]1C(=O)NCCCCCCCCCCCC(=O)O)C(C)C (some centres unmarked) [Derivative 16],completely inactive,inactive,
CC(=O)NC1C(O[C@@H]2OC(CO)[C@H](O)C(O)C2O)[C@@H](O)C(CO)O[C@@H]1OC(C)[C@H](N)C(=O)NC(C(=O)N1CCC[C@H]1C(=O)NC(C)C(=O)N[C@@H](C)C(=O)O)C(C)C (some centres unmarked) [Derivative 17] (H-[Thr(3ξ)](X1)[ξV]P[ξA]A-OH),completely inactive,inactive,
"CC(=O)NC1C(O[C@@H]2OC(CO)[C@H](O)C(O)C2O)[C@@H](O)C(CO)O[C@@H]1OC(C)[C@H](N)C(=O)NC(C(=O)N1CCC[C@H]1C(=O)NC(C)C(=O)N[C@@H](C)C(=O)NC(C(=O)N[C@H](C(=O)NC(C(=O)O)C(C)C)C(C)C)C(C)C)C(C)C (some centres unmarked) [Derivative 18, Galβ1-3GalNAcα-O-TVPAAVVV] (H-[Thr(3ξ)](X1)[ξV]P[ξA]A[ξV]V[ξV]-OH)",full activity,100%,100%
"CC(=O)NC1C(O[C@@H]2OC(CO)[C@H](O)C(O)C2O)[C@@H](O)C(CO)O[C@@H]1OC(C)[C@H](N)C(=O)NC(C(=O)N1CCC[C@H]1C(=O)NC(C)C(=O)N[C@@H](C)C(=O)NC(C(=O)N[C@H](C(=O)O)C(C)C)C(C)C)C(C)C (some centres unmarked) [Derivative 19, Galβ1-3GalNAcα-O-TVPAAVV] (H-[Thr(3ξ)](X1)[ξV]P[ξA]A[ξV]V-OH)",completely inactive,inactive,
CC(=O)NC1C(O[C@@H]2OC(CO)[C@H](O)C(O)C2O)[C@@H](O)C(CO)O[C@@H]1OC(C)[C@H](N)C(=O)NC(C(=O)N1CCC[C@H]1C(=O)NC(C)C(=O)N[C@@H](C)C(=O)NC(C(=O)N[C@H](C(=O)NC(C)C(=O)N[C@H](C(=O)O)C(C)C)C(C)C)C(C)C)C(C)C (some centres unmarked) [Derivative 20] (H-[Thr(3ξ)](X1)[ξV]P[ξA]A[ξV]V[ξA]V-OH),loss of most or all biological activity,inactive,
CC(=O)NC1C(O[C@@H]2OC(CO)[C@H](O)C(O)C2O)[C@@H](O)C(CO)O[C@@H]1OC(C)[C@H](N)C(=O)NC(C(=O)N1CCC[C@H]1C(=O)NC(C)C(=O)N[C@@H](C)C(=O)NC(C(=O)N[C@H](C(=O)NC(C(=O)N[C@@H](CC(C)C)C(=O)O)C(C)C)C(C)C)C(C)C)C(C)C (stereo partly drawn) [Derivative 21] (H-[Thr(3ξ)](X1)[ξV]P[ξA]A[ξV]V[ξV]L-OH),loss of most or all biological activity,0.01%,
CC(=O)NC1C(O[C@@H]2OC(CO)[C@H](O)C(O)C2O)[C@@H](O)C(CO)O[C@@H]1OC(C)[C@H](N)C(=O)NC(C(=O)N1CCC[C@H]1C(=O)NC(C)C(=O)N[C@H](C(=O)NC(C(=O)N[C@H](C(=O)NC(C(=O)N[C@@H](C)C(=O)O)C(C)C)C(C)C)C(C)C)C(C)C)C(C)C (some centres unmarked) [Derivative 22] (H-[Thr(3ξ)](X1)[ξV]P[ξA]V[ξV]V[ξV]A-OH),loss of most or all biological activity,inactive,
